Test results published in patent publication US6774143B1, “Method for treating cells resistant to antineoplastic agents” (Novartis AG, priority 2003, dated 2004).
Where two headings read alike, the source gives them in different places.

Legend:
1A9 cell line = experiment: In vivo hollow fiber assay in nude mice
Experimental: (§1) PVDF hollow fibers (Spectrum, Gardena, Calif.) are soaked in 70% EtOH for 72 hours before use. After this step, all handling of fibers are done under a biological laminar flow hood using aseptic procedures. Individual fibers are flushed with 3 mL of the ice-cold tissue culture media using a syringe equipped with a 20-gauge needle. Next, each fiber is filled with an appropriate cell suspension (1×10^6 cells/mL for the 1A9 and 1A9PTX22 cells, and 0.5×10^6 cells/mL for the LS 174T cells), and both ends of the fiber are sealed with a hot flat needle holder. The entire length of the fiber is then sealed into 1.5 cm microcapsules (further called “hollow fibers”), each containing approximately 15 uL of the appropriate cell suspension. After separation, individual hollow fibers are placed in 6 well plates (6 fibers in 5 mL media per well), and are incubated overnight at 37° C. in the tissue culture incubator.
(§2) Outbred athymic (nu/nu) female mice (“Chrls:Athymic Nude-nu”, Charles River Laboratories, Wilmington, Mass.) are anesthetized with ip injections of Ketamine/Xylazine (150 mg/kg, and 12 mg/kg body weight, respectively). For the subcutaneous implantation an 11-gauge trocar containing one or two hollow fibers is inserted into an incision made with scissors at the nape of the neck of an animal, and fibers are released by retracting the trocar while depressing the plunger. This procedure is repeated until all three hollow fibers are implanted. One wound clip is used to close the skin incision After the surgery each animal receives a single, subcutaneous injection of 0.4 mg/kg butorphenol to relieve any potential pain. Animals recover from the anesthesia on a heating pad, before retuning to their cages.
(§3) One day after the implantation (3 hollow fibers/animal, each hollow fiber containing one cell line: LS 174T, 1A9, and 1A9PTX22) animals are randomly sorted into five groups of six mice/group. The first group is sacrificed; hollow fibers are retrieved, and processed according to a published procedure (Hollingshead M G, et al. Life Sciences 1995, 57(2):131-141), to determine the number of viable cells in each fiber (T0.)
(§4) On day 6 all animals are sacrificed, and hollow fibers are retrieved, and processed according to Hollingshead, M G, (supra) to determine the number of viable cells in each fiber (T—for fibers from animals treated with experimental compounds, C—for fibers from animals treated with corresponding vehicles). Antitumor activity is expressed as % Mean ΔT/Mean ΔC [comparing cell growth for treatment group to vehicle control group, where % Mean ΔT/Mean ΔC=(Mean T—Mean T0/Mean C—Mean T0)×100%]. Regressions are calculated using the formula: (1−Mean T/Mean T0)×100%. Statistical significance of the results is uniformly evaluated using a two-tailed Student's t-test.
(§5) Discodermolide is isolated from the sponge Discodermia dissoluta using the method of Gunasekera SP (supra). Multiple batches of compound of similar purity (all>95% pure, as determined by mass spectrometry, and nuclear magnetic resonance analysis) are used throughout the various studies. For the in vitro cytotoxicity assays all compounds are dissolved in DMSO and are added to the plates with cells to obtain desired concentrations. […] Paclitaxel is purchased from Sigma/Aldrich, (St. Louis, Mo.). For the in vivo hollow fiber assay, solid discodermolide is dissolved in pure ethanol to create a stock solution which is diluted just before dosing with Cremophor EL and D5W to a final concentration of 16.7% Cremophor EL, 8.3% ethanol and 75% D5W. The compound is administered to mice as a single, 15 mg/kg iv injection. Positive control animals receive clinical formulations of paclitaxel (TAXOL) diluted 4-fold with D5W (12.5% Cremophor El, 12.5% ethanol and 75% D5W final concentrations) and administered iv, at 15 mg/kg, once daily for five consecutive days. Vehicle controls are administered according to the corresponding drug schedules.

LS 174T cell line = experiment: In vivo hollow fiber assay in nude mice
Experimental: as §1, §2, §3, §4, §5

1A9PTX22 cell line = experiment: In vivo hollow fiber assay in nude mice
Experimental: as §1, §2, §3, §4, §5

[1] = In vivo hollow fiber assay, body weight of the animals; design: species or system mice; details: both experiments
Experimental: as §2
One day after the implantation (3 hollow fibers/animal, each hollow fiber containing one cell line: LS 174T, 1A9, and 1A9PTX22) animals are randomly sorted into five groups of six mice/group. […]
Discodermolide is isolated from the sponge Discodermia dissoluta using the method of Gunasekera SP (supra). Multiple batches of compound of similar purity (all>95% pure, as determined by mass spectrometry, and nuclear magnetic resonance analysis) are used throughout the various studies. […]

1A9 cells = experiment: Antiproliferative assay (MTS); assay type: cell-based; details: Homo sapiens, 1A9, 72 h, single value given
Experimental: A549, a human non-small cell lung carcinoma and MDA-MB-435, a human breast carcinoma, used in this study are obtained from the American Type Culture Collection (ATCC, Rockville, Md., USA). MDA-MB-435 cells are maintained in MEM containing 10% FBS, 1% sodium pyruvate, 1% MEM non-essential amino acids, and 15 mM HEPES (pH=7.4). A549 cells are maintained in RPMI 1640 containing 10% FBS. 1A9, a single-cell clone of the human ovarian carcinoma cell line A2780 and PTX22, the paclitaxel-resistant subline, used in this stdy are obtained from M. Wartman (Novartis Pharmauticals). 1A9 cells and PTX22 cells are maintained in RPMI 1640 supplemented with 10% FBS. PTX22 maintenance media also contained 15 ng/mL paclitaxel and 5 μg/mL verapamil. Drug is removed from the media for 5-7 days before use in an experiment. […]
Cell lines are trypsinized and counted using a Coulter counter. […] Initial cell density for each cell line is measured on day 1 by adding 10 μL MTS mixture (see below), incubating for 4 h and recording absorbance at 490 nm (A490). Two or three days after test compound addition, 10 μL/well of MTS mixture is added to the test plates and A490 was read 4 h later. A490 values for wells containing cells are corrected for media absorbance, then normalized to initial density readings to determine percent net growth. Percent net growth is calculated as (A490+drug−A490 initial)/(A490—drug—A490 initial). […]

[2] = first experiment, paclitaxel iv 15 mg/kg once daily for 5 days
[3] = second experiment, paclitaxel iv 15 mg/kg once daily for 5 days
[4] = first experiment, discodermolide single 15 mg/kg iv
[5] = second experiment, discodermolide single 15 mg/kg iv

Compound	T/C (1A9 cell line; [2])	T/C (1A9 cell line; [3])	T/C (LS 174T cell line; [2])	T/C (LS 174T cell line; [3])	T/C (1A9PTX22 cell line; [2])	T/C (1A9PTX22 cell line; [3])	body weight lost ([1]; paclitaxel iv 15 mg/kg once daily for 5 days)	IC50 (1A9 cells; 1A9 cells, read-out: 72 hour IC50)	T/C (1A9 cell line; [4])	T/C (1A9 cell line; [5])	T/C (LS 174T cell line; [4])	T/C (LS 174T cell line; [5])	T/C (1A9PTX22 cell line; [4])	regression (1A9PTX22 cell line; first study, discodermolide single 15 mg/kg iv, p<0.01)	T/C (1A9PTX22 cell line; [5])	body weight lost ([1]; discodermolide single 15 mg/kg iv)	IC50 (1A9 cells; read-out: 72 hour IC50, 1A9 cells)
CC(=O)O[C@H]1C(=O)[C@@]2(C)[C@H]([C@H](OC(=O)c3ccccc3)[C@]3(O)C[C@H](OC(=O)[C@H](O)[C@@H](NC(=O)c4ccccc4)c4ccccc4)C(C)=C1C3(C)C)[C@]1(OC(C)=O)CO[C@@H]1C[C@@H]2O [paclitaxel, reference compound]	−8%	2%	3%	8%	79%	90%	5%	6 nM									
C=C/C=C\[C@H](C)[C@H](OC(N)=O)[C@@H](C)[C@H](O)[C@@H](C)C/C(C)=C\[C@H](C)[C@@H](O)[C@@H](C)/C=C\[C@@H](O)C[C@@H]1OC(=O)[C@H](C)[C@@H](O)[C@H]1C [discodermolide, (+)-Discodermolide]									8%	14%	7%	13%	−13%	13%	13%	10%	25 nM
